Assay [1] has as its target T1, Collagenase 3 (Homo sapiens, UniProt P45452). Nature of the assay: Inhibition of MMP13 (unknown origin) assessed as reduction in cleavage of colorimetric substrate incubated for 1 hr by colorimetric analysis.
In assay [2] the target is Galectin-3 (Mus musculus) (UniProt P16110). Description: Inhibition of biotinylated galectin-3 binding to C57BL/6 mouse kidney medulla at 125 to 500 uM of lactose residue per molecule preincubated for 1 hr followed by incubation with tissue material for overnight by light microsocopy. It is filed as tissue-based. The settings on record: Renal medulla, dose 125-500 µM.
The target of assay [3] is Galectin-1 (Mus musculus) (UniProt P16045). Description: Inhibition of biotinylated galectin-1 binding to C57BL/6 mouse kidney at 125 to 500 uM of lactose residue per molecule preincubated for 1 hr followed by incubation with tissue material for overnight by light microsocopy. It is filed as tissue-based. The note with it: dose 125-500 µM.
The nature of assay [4]: Inhibition of biotinylated Galectin-1/3 (unknown origin) preincubated for 30 mins at room temperature followed by incubation at 37 degC for 1 hr by surface-immobilized glycoprotein asialofetuin based solid phase assay. On the set-up: species or system Homo sapiens.
The species named for assay [5] is Homo sapiens. Nature of the assay: Inhibition of biotinylated Galectin-1/3 (unknown origin) preincubated for 30 mins at room temperature followed by incubation at 37 degC for 1 hr by surface-immobilized glycoprotein asialofetuin based solid phase assay relative to lactose. The note with it: time 90.0 min.
Assay [6] has as its target Galectin-3 (Mus musculus) (UniProt P16110). Nature of the assay: Inhibition of biotinylated galectin-3 binding to C57BL/6 mouse kidney cortex at 125 to 500 uM of lactose residue per molecule preincubated for 1 hr followed by incubation with tissue material for overnight by light microsocopy. The note with it: dose 125-500 µM. It is filed as tissue-based.
The species entered for assay [7] is Homo sapiens. Nature of the assay: Inhibition of Alexa-Fluor-488 conjugated galectin-1/Alexa-Fluor-647 conjugated galectin-3 binding to human osteoarthritic cartilage at 4 mM of sugar preincubated for 1 hr followed by incubation with tissue material for overnight by 2-colour fluorescence microsocopy. It is filed as tissue-based.
The target in assay [8] is Galectin-1 (Homo sapiens) (UniProt P09382). Description: Inhibition of Alexa-Fluor-488 conjugated galectin-1 binding to human osteoarthritic cartilage at 4 mM of sugar preincubated for 1 hr followed by incubation with tissue material for overnight by 2-colour fluorescence microsocopy. It is filed as tissue-based.
Assay [9] has as its target Galectin-3 (Homo sapiens) (UniProt P17931). Nature of the assay: Inhibition of Alexa-Fluor-647 conjugated galectin-3 binding to human osteoarthritic cartilage at 4 mM of sugar preincubated for 1 hr followed by incubation with tissue material for overnight by 2-colour fluorescence microsocopy. It is filed as tissue-based.
Assay [10] addresses Galectin-3 (Mus musculus) (UniProt P16110). Nature of the assay: Inhibition of Alexa-Fluor-647 conjugated galectin-3 binding to C57BL/6 mouse medulla at 2 mM of sugar preincubated for 1 hr followed by incubation with tissue material for overnight by 2-colour fluorescence microsocopy. It is filed as tissue-based. The settings on record: Renal medulla.
The species entered for assay [11] is Mus musculus. Nature of the assay: Inhibition of Alexa-Fluor-488 conjugated galectin-1/Alexa-Fluor-647 conjugated galectin-3 binding to C57BL/6 mouse medulla at 2 mM of sugar preincubated for 1 hr followed by incubation with tissue material for overnight by 2-colour fluorescence microsocopy. It is filed as tissue-based. The note with it: Renal medulla.
The target of assay [12] is Galectin-1 (Mus musculus) (UniProt P16045). Nature of the assay: Inhibition of Alexa-Fluor-488 conjugated galectin-1 binding to C57BL/6 mouse kidney medulla at 2 mM of sugar preincubated for 1 hr followed by incubation with tissue material for overnight by 2-colour fluorescence microsocopy. It is filed as tissue-based. The note with it: Renal medulla.
Assay [13] concerns the target T1, Collagenase 3. Description: Inhibition of MMP13 (unknown origin) assessed as reduction in cleavage of colorimetric substrate by measuring remaining activity at 1000 nM incubated for 1 hr by colorimetric analysis relative to control.
The target in assay [14] is Galectin-3 (Mus musculus) (UniProt P16110). Description: Inhibition of Alexa-Fluor-647 conjugated galectin-3 binding to C57BL/6 mouse kidney cortex at 2 mM of sugar preincubated for 1 hr followed by incubation with tissue material for overnight by 2-colour fluorescence microsocopy. It is filed as tissue-based.
The species named for assay [15] is Mus musculus. Nature of the assay: Inhibition of Alexa-Fluor-488 conjugated galectin-1/Alexa-Fluor-647 conjugated galectin-3 binding to C57BL/6 mouse kidney cortex at 2 mM of sugar preincubated for 1 hr followed by incubation with tissue material for overnight by 2-colour fluorescence microsocopy. It is filed as tissue-based.
The target of assay [16] is Galectin-1 (Mus musculus) (UniProt P16045). Nature of the assay: Inhibition of Alexa-Fluor-488 conjugated galectin-1 binding to C57BL/6 mouse kidney cortex at 2 mM of sugar preincubated for 1 hr followed by incubation with tissue material for overnight by 2-colour fluorescence microsocopy. It is filed as tissue-based.
In assay [17] the target is T1, Collagenase 3. Nature of the assay: Inhibition of MMP13 (unknown origin) assessed as reduction in cleavage of colorimetric substrate by measuring remaining activity at 100 nM incubated for 1 hr by colorimetric analysis relative to control.
For assay [18], the target named is T1, Collagenase 3. Nature of the assay: Inhibition of MMP13 (unknown origin) assessed as reduction in cleavage of colorimetric substrate by measuring remaining activity at 10 nM incubated for 1 hr by colorimetric analysis relative to control.

pIC50: −log10 of the molar value. Calls of active or inactive are those of the source. No cut-off for these calls is given here.

Galectin-3 (Mus musculus), sequence (P16110 whole entry): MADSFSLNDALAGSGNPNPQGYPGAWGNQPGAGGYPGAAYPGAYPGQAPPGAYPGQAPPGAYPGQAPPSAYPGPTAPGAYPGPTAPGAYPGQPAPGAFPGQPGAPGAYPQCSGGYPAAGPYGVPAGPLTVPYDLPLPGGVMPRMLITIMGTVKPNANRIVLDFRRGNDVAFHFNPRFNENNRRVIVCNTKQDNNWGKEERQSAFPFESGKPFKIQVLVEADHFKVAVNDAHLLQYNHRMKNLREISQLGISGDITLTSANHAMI
Galectin-1 (Mus musculus), sequence (P16045 whole entry): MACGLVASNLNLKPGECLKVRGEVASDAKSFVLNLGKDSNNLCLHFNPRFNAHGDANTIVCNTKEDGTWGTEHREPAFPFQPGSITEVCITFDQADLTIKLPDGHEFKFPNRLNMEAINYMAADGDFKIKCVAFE
Galectin-3 (Homo sapiens), sequence (P17931 whole entry): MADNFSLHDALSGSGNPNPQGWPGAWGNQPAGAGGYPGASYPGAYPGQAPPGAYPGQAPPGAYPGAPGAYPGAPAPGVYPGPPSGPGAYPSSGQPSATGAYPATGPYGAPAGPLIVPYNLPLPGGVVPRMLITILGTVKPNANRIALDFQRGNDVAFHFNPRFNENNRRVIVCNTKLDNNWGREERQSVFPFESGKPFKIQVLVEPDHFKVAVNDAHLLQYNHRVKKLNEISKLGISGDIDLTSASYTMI
Galectin-1 (Homo sapiens), sequence (P09382 whole entry): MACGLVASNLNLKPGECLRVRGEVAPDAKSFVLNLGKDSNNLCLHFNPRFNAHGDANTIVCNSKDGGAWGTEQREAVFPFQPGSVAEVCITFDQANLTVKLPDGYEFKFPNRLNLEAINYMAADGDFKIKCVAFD

Take `COc1ccc(S(=O)(=O)N(CC(=O)NO)CC(C)C)cc1`: the pIC50 (usually −log10 of the IC50, conventionally taken in molar units) in assay [1] was 8.28.

With `OC[C@H]1O[C@@H](O[C@H]2[C@H](O)[C@@H](O)[C@H](n3cc(COC[C@@H](OCc4cn([C@@H]5O[C@H](CO)[C@@H](O[C@@H]6O[C@H](CO)[C@H](O)[C@H](O)[C@H]6O)[C@H](O)[C@H]5O)nn4)[C@@H](OCc4cn([C@@H]5O[C@H](CO)[C@@H](O[C@@H]6O[C@H](CO)[C@H](O)[C@H](O)[C@H]6O)[C@H](O)[C@H]5O)nn4)[C@H](OCc4cn([C@@H]5O[C@H](CO)[C@@H](O[C@@H]6O[C@H](CO)[C@H](O)[C@H](O)[C@H]6O)[C@H](O)[C@H]5O)nn4)[C@@H](COCc4ccccc4)OCc4ccccc4)nn3)O[C@@H]2CO)[C@H](O)[C@@H](O)[C@H]1O`, the inhibition result in [2], in assay [3] and in [6] was “Active” each time. This compound also showed a pIC50 in assay [4] of 3.66. Moreover, the Ratio in [5] amounted to 4.9.

On to “LACTOSE, ANHYDROUS [listing 1 of 2 here]”, for which the pIC50 in assay [4] was 2.97.

`OC[C@H]1O[C@@H](O[C@H]2[C@H](O)[C@@H](O)[C@H](n3cc(COC[C@@H](OCc4cn([C@@H]5O[C@H](CO)[C@@H](O[C@@H]6O[C@H](CO)[C@H](O)[C@H](O)[C@H]6O)[C@H](O)[C@H]5O)nn4)[C@@H](O)[C@H](O)[C@@H](COCc4cn([C@@H]5O[C@H](CO)[C@@H](O[C@@H]6O[C@H](CO)[C@H](O)[C@H](O)[C@H]6O)[C@H](O)[C@H]5O)nn4)OCc4cn([C@@H]5O[C@H](CO)[C@@H](O[C@@H]6O[C@H](CO)[C@H](O)[C@H](O)[C@H]6O)[C@H](O)[C@H]5O)nn4)nn3)O[C@@H]2CO)[C@H](O)[C@@H](O)[C@H]1O`: the inhibition entry in assay [2], in [3] and in [6] was “Active” in each case. The compound further gave a pIC50 in [4] of 3.38. Besides, in [5], the Ratio was found to be 2.5.

With “LACTOSE, ANHYDROUS [listing 2 of 2 here]”, the inhibition result in [7], in assay [8] and in [9] was “Active” throughout.

As to `COc1ccc(S(=O)(=O)N(CCCCCCNC(=O)CCCCC(=O)NCCN(CCC(=O)NCCNC(=O)CCCCC(=O)NCCO[C@@H]2O[C@H](CO)[C@@H](O[C@@H]3O[C@H](CO)[C@H](O)[C@H](O)[C@H]3O)[C@H](O)[C@H]2O)CCC(=O)NCCNC(=O)CCCCC(=O)NCCO[C@@H]2O[C@H](CO)[C@@H](O[C@@H]3O[C@H](CO)[C@H](O)[C@H](O)[C@H]3O)[C@H](O)[C@H]2O)CC(=O)NO)cc1`, the inhibition result in assay [10], in assay [7], in assay [2], in assay [3], in assay [8] and in assay [11] was “Active” in each case. Further, the inhibition result in [12], in assay [9], in assay [14], in assay [15], in assay [16] and in [6] was “Active” throughout. The pIC50 in assay [4] was 3.70; in [1], 8.89. Moreover, the Activity in assay [13] worked out at 2.7%; in [17], 3.2%; in assay [18], 15.2%. In assay [5], the Ratio worked out at 5.4.

Values taken from ChEMBL document CHEMBL5150031, “Targeting osteoarthritis-associated galectins and an induced effector class by a ditopic bifunctional reagent: Impact of its glycan part on binding measured in the tissue context” (Bioorg Med Chem, 2022).
